From ChEMBL document CHEMBL5113500, “New brefeldin A-cinnamic acid ester derivatives as potential antitumor agents: Design, synthesis and biological evaluation” (Eur J Med Chem, 2022)

Test system: Bel-7402
Experiment: Cell cycle arrest in human Bel-7402 cells assessed as accumulation at S phase at 2 uM measured after 24 hrs by propidium iodide staining based flow cytometry (reference value: 31%)
Format: functional

## C[C@H]1CCC/C=C/[C@@H]2C[C@H](O)C[C@H]2[C@H](OC(=O)/C=C/c2ccc(N(C)C)cc2)/C=C/C(=O)O1
  Activity: 20.69%
